Values joined by “and” are separate entries in the source; they are usually repeats but may differ in a detail not shown here. Identical values can stand only once.
Tests used:
[1] = target: double-stranded nucleic acids; assay: Binding constant (Kb) of fluorescent dye with double-stranded nucleic acids; conditions: Kp from Molecular Probes catalog divided by 55
Description: The fluorescent dyes useful herein are generally defined as unsymmetrical cyanine dyes having a binding constant (Kb) within the range of from about 1×104 to about 5×105 (molar^-1). As used to define Kb, "about" refers to a variance of 10%. The dyes are also water-soluble or water-dispersible so they can bind to the nucleic acids in the aqueous reaction mixture. Depending upon the anions used, the dyes may be dissolved in a water-miscible solvent.
Particularly useful fluorescent dyes are commercially available from Molecular Probes, Inc. having the trade names and Kp values listed in Table I below. However, this invention is not to be construed as limited to the particular Molecular Probes, Inc. dyes listed therein since these are but preferred dyes. The cations of these preferred dyes are also identified below by chemical structure. The compounds can include any suitable divalent anion, or two monovalent anions. Iodide is preferred. [drawing 3]
*The Kb values in the table were calculated by dividing the partitio
coefficient (Kp) reported in the Molecular Probes, Inc. catalog, page 224
by 55, the molarity of water.

HIV-I DNA [2] = assay: Example 3: fluorescence after amplification with dye; usefulness / PCR inhibition; type: biochemical; conditions: for Fluorescent Signal: amplified samples mixed with YOYO-1 (0.1 μmolar); for usefulness of dye / inhibition of PCR: dye in amplification
Protocol: The primers used in Example 3 had the following sequences which are complementary to the gag region of HIV-I DNA: Amplification experiments like those of Example 2 were also carried out to evaluate the usefulness of several other conventional fluorescent dye stains. In these assays, primers identified above as SEQ ID NO:3 and SEQ ID NO:4 were used, as well as the probe identified as SEQ ID NO:6. […] Fluorescence was determined as described in Example 2 except that all amplified samples were mixed with a solution of YOYO-1 (0.1 μmolar) to provide a common minimum threshold of signal.

HIV-I DNA [3] = assay: Example 2: fluorescence of amplification products; type: biochemical
Protocol: (§1) The method of this invention was compared to an amplification and detection method outside the scope of this invention, which was carried out using YOYO-1 (1 μmolar final concentration), a tetravalent fluorescent dye, in the buffered solution described above. This dye has the following structure: [drawing 4]
(§2) The PCR reaction mixture of Example 1 (except the DNA polymerase) was made to a volume of 5472 μl. The resulting mixture was aliquoted into tubes A, B and C (1824 μl each) representing Samples A, B and C, respectively.
(§3) The sample in Tube A was diluted with buffer (220 μl) and subjected to amplification without any fluorescence dye present. The dye was added at the end of amplification for quantitative detection of the resulting products.
(§4) In addition to the PCR reagents, the sample in Tube B contained YOYO-1 fluorescent dye (0.1 μmolar) which had been added prior to amplification (220 μl of a 10 μmolar solution).
(§5) The sample in Tube C also contained YO-PRO-1 fluorescent dye (0.1 μmolar) which had been added prior to amplification (220 μl of a 10 μmolar solution).
(§6) The DNA polymerase (88 μl) and target HIV-I DNA target nucleic acid (220 μl) were then added to each tube, and the contents of the each of the three tubes were used to fill the PCR reagent compartment of eight pouches.
Amplification was carried out using the same procedures as in Example 1. […]
(§7) The results of amplification were detected in three ways: (1) color dye scores visually evaluated as 0 (no signal) to 10 (highest signal density), (2) ethidium bromide stained electrophoretic gels, and (3) fluorescence measured on a commercially available Perkin Elmer fluorimeter.
Three replicate assays of each sample (A, B and C) were carried out using each detection means. The average result for each detection means was as follows:
Fluorescent signal was generated using a Perkin-Elmer LS-5B fluorimeter, at the following wavelengths for both dyes:
Each amplification product mixture was diluted 100× into a solution of each dye (1 μmolar final concentration). Background signals were obtained from a mixture of amplification reagent mixture and each dye.

HIV-I DNA [4] = assay: Example 2: ethidium bromide stained electrophoretic gels of amplification products; type: biochemical
Protocol: The method of this invention was compared to an amplification and detection method outside the scope of this invention, which was carried out using YOYO-1 (1 μmolar final concentration), a tetravalent fluorescent dye, in the buffered solution described above. This dye has the following structure: [drawing 4] The PCR reaction mixture of Example 1 (except the DNA polymerase) was made to a volume of 5472 μl. The resulting mixture was aliquoted into tubes A, B and C (1824 μl each) representing Samples A, B and C, respectively. The sample in Tube A was diluted with buffer (220 μl) and subjected to amplification without any fluorescence dye present. The dye was added at the end of amplification for quantitative detection of the resulting products. In addition to the PCR reagents, the sample in Tube B contained YOYO-1 fluorescent dye (0.1 μmolar) which had been added prior to amplification (220 μl of a 10 μmolar solution). The sample in Tube C also contained YO-[…] fluorescent dye (0.1 μmolar) which had been added prior to amplification (220 μl of a 10 μmolar solution). The DNA polymerase (88 μl) and target HIV-I DNA target nucleic acid (220 μl) were then added to each tube, and the contents of the each of the three tubes were used to fill the PCR reagent compartment of eight pouches. Amplification was carried out using the same procedures as in Example 1. […] follows: The results of amplification were detected in three ways: (1) color dye scores visually evaluated as 0 (no signal) to 10 (highest signal density), (2) ethidium bromide stained electrophoretic gels, and (3) fluorescence measured on a commercially available Perkin Elmer fluorimeter. Electrophoresis was carried out using commercially available NuSieve 1.5%/Seakem Agarose 1% gels (modified to 2.5% agarose) and ethidium bromide stain. The samples were applied to the gels in conventional TBE buffer (4 μl/100 μl). Three replicate assays of each sample (A, B and C) were carried out using each detection means. The average result for each detection means was as follows: […]

HIV-I DNA [5] = assay: Example 2: leuco dye color scores of amplified target in pouches; type: biochemical; conditions: dye added prior to amplification
Protocol: as §1
Amplification was carried out using self-contained chemical pouches such as those described in U.S. Pat. No. 5,229,297 (Schnipelsky et al). Those pouches contained the capture probe SEQ ID NO:5 attached to particles which were immobilized in a detection channel where reactions can take place.
The pouches were loaded with reagents, as follows:
as §2, §3, §4, §5, §6
Amplification was carried out using the same procedures as in Example 1. The PCR protocol was similarly carried out for 40 cycles using a thermal cycler as follows:
1) Preheat to denature at 95° C. for 60 seconds,
priming and extension for 40 seconds at 63.5° C., and denaturation for 10 seconds at 95° C., and
3) final denaturation for 60 seconds at 95° C.
as §7
The noted color scores were obtained by using immobilized capture probes in the pouches with which the amplified target hybridized during incubation for 5 minutes at 42° C. The immobilized target was contacted with the conjugate solution (identified above) for 1 minute at 30° C., followed by the wash solution for 1 minute at 55° C. The leuco dye solution was then added at 30° C. and the resulting color signal was observed after two minutes incubation at 30° C. […]

[6] = 60 cycles, in the presence of YOYO-1

| Compound | Kd [1] | Fluorescent Signal (HIV-I DNA [2]) | usefulness of dye / inhibition of PCR (HIV-I DNA [2]) | other results |
| --- | --- | --- | --- | --- |
| C[n+]1c(C=C2C=CN(CCC[N+](C)(C)C)C=C2)oc2ccccc21 [A] | 27.8 µM |  |  |  |
| C[n+]1c(C=C2C=CN(CCC[N+](C)(C)C)C=C2)sc2ccccc21 [Compound C] | 17.2 µM | 19.6 | useful |  |
| C[n+]1c(C=C2C=CN(CCC[N+](C)(C)C)c3ccccc32)sc2ccccc21 [Compound G] | 2.78 µM | 8.32 | useful |  |
| C[n+]1c(C=CC=C2C=CN(CCC[N+](C)(C)C)c3ccccc32)sc2ccccc21 [Compound H] | 9.09 µM | 15.5 | useful |  |
| C[n+]1c(C=CC=C2C=CN(CCC[N+](C)(C)C)C=C2)sc2ccccc21 [D] | 11.5 µM |  |  |  |
| C[n+]1c(C=CC=C2C=CN(CCC[N+](C)(C)C)c3ccccc32)oc2ccccc21 [F] | 16.7 µM |  |  |  |
| CN1/C(=C/c2cc[n+](CCC[N+](C)(C)CCC[N+](C)(C)CCC[n+]3ccc(/C=C4\Sc5ccccc5N4C)c4ccccc43)c3ccccc23)Sc2ccccc21.[I-].[I-].[I-].[I-] [TOTO-1, reference compound] |  | 2.70 |  |  |
| C[n+]1c(C=C2C=CN(CCC[N+](C)(C)CCC[N+](C)(C)CCCN3C=CC(=Cc4oc5ccccc5[n+]4C)c4ccccc43)c3ccccc32)oc2ccccc21 [YOYO-1] |  | 2.18 | not useful because they generally inhibited PCR | difference with modified protocol, by fluorescence (HIV-I DNA [3]; [6]): small and was detectable by fluorescence; Fluorescence, dye added after amplification (Sample A) (HIV-I DNA [3]; Sample A, dye added after amplification, replicates, 491/509 nm): 7.1 Fluorescent Units and 6.6 Fluorescent Units and 6.0 Fluorescent Units (2×); Background fluorescence (HIV-I DNA [3]; amplification reagent mixture and dye, excitation 491 nm, emission 509 nm): 0.09 Fluorescent Units; effect of dye on amplification / overall signal (HIV-I DNA [3]; comparison of the two dyes (fluorescence)): considerably inhibits the amplification process; Fluorescence, dye present during amplification (Samples B, C) (HIV-I DNA [3]; dye added prior to amplification, replicates, 491/509 nm): 1.5 Fluorescent Units (3×) and 1.4 Fluorescent Units (2×); nucleic acid staining (HIV-I DNA [3]; in words): high nucleic acid staining; difference with modified protocol, by gel electrophoresis (HIV-I DNA [4]; [6]): not by gel electrophoresis; effect of dye on amplification (gel) (HIV-I DNA [4]; dye added prior to amplification): stopped amplification; Positive/negative Gel Bands (HIV-I DNA [4]; dye added prior to amplification, 40 cycles): 5 Negatives out of 5 bands; effect of dye on amplification (color scores) (HIV-I DNA [5]): inhibited amplification; Average Color Score (HIV-I DNA [5]; leuco dye, 0 (no signal) to 10 (highest signal density), 40 cycles): 0 |
| TOTO-3 [reference compound] |  | 8.45 |  | Fluorescent signal and its repeatability (in words) (HIV-I DNA [2]; Table II footnote): high fluorescent signal in one experiment |

Source: US5563037A, “Homogeneous method for assay of double-stranded nucleic acids using fluorescent dyes and kit useful therein” (Johnson & Johnson Clinical Diagnostics, Inc., priority 1995, dated 1996)
